{
  "source": "patent US11439148B2",
  "about": "“Pyrimidine derivatives” (SYNGENTA PARTICIPATIONS AG, priority 2017, dated 2022)",
  "type_in_all_cases": "in vivo",
  "key": {"[1]": {"tested_on": "Abutilon theophrasti (ABUTH)", "test": "Adjuvant efficacy with nicosulfuron, glasshouse spray test", "conditions": "nicosulfuron WG, mean over 15 and 60 g/ha and 3 replicates; adjuvant 0.2% v/v (none in No Adjuvant rows); % leaf area killed, 21 days after application; Tests 1-4 separate runs", "procedure": "(§1) The efficacy of adjuvants 1-12 as adjuvants for the herbicide nicosulfuron were tested in a glasshouse against four weed species sown into standard soil in pots and cultivated under controlled conditions in a glasshouse (at 24/18° C. day/night; 16 hours light; 65% humidity). Nicosulfuron was added to the spray tank as a standard WG (water dispersible granule) formulation.\n(§2) The spray tests were also carried out using nicosulfuron in conjunction with adjuvants 1-12. The adjuvant was added to the spray solution at a rate of 0.2% v/v. All spray solutions also contained 12.5% v/v of iso-Propanol. The weed species and their BBCH growth stage at spraying were Abutilon theophrasti (ABUTH; growth stage 13), Chenopodium album (CHEAL; growth stage 13-14), Digitaria sanguinalis (DIGSA; growth stage 11), and Setaria viridis (SETVI; growth stage 13). Each spray test was replicated three times. The test plants were then grown in a glasshouse under controlled conditions (at 24/18° C. day/night; 16 hours light; 65% humidity) and watered twice a day. The efficacy of the herbicide was assessed visually and expressed as a percentage of the leaf area killed. Samples were assessed at a time period of 21 days following application. The results shown in Table 1 below are mean averages over the two rates of nicosulfuron, and the three replicates."}, "[2]": {"tested_on": "Chenopodium album (CHEAL)", "test": "Adjuvant efficacy with nicosulfuron, glasshouse spray test", "conditions": "nicosulfuron WG, mean over 15 and 60 g/ha and 3 replicates; adjuvant 0.2% v/v (none in No Adjuvant rows); % leaf area killed, 21 days after application; Tests 1-4 separate runs", "procedure": "as §1, §2"}, "[3]": {"tested_on": "Digitaria sanguinalis (DIGSA)", "test": "Adjuvant efficacy with nicosulfuron, glasshouse spray test", "conditions": "nicosulfuron WG, mean over 15 and 60 g/ha and 3 replicates; adjuvant 0.2% v/v (none in No Adjuvant rows); % leaf area killed, 21 days after application; Tests 1-4 separate runs", "procedure": "as §1, §2"}, "Setaria viridis (SETVI) [4]": {"tested_on": "Setaria viridis (SETVI)", "test": "Adjuvant efficacy with nicosulfuron, glasshouse spray test", "conditions": "nicosulfuron WG, mean over 15 and 60 g/ha and 3 replicates; adjuvant 0.2% v/v (none in No Adjuvant rows); % leaf area killed, 21 days after application; Tests 1-4 separate runs", "procedure": "as §1, §2"}, "[5]": {"tested_on": "Brachiaria platyphylla (BRAPP)", "test": "Adjuvant efficacy with mesotrione, glasshouse spray test", "conditions": "mesotrione SC, mean over 30 and 60 g/ha and 3 replicates; adjuvant 0.2% v/v (none in No Adjuvant rows); % leaf area killed, 21 days after application; Tests 1-3 separate runs"}, "[6]": {"tested_on": "weed species BRAPP, COMBE, DIGSA, POLCO", "test": "Adjuvant efficacy with mesotrione, glasshouse spray test, average over all species (BRAPP set)", "conditions": "mesotrione SC, mean over 30 and 60 g/ha; adjuvant 0.2% v/v (none in No Adjuvant rows); 21 days; Tests 1-3, species set with BRAPP (COMBE only in Test 2)", "procedure": "The efficacy of adjuvants 1-12 as an adjuvant for the herbicide mesotrione was tested in a glasshouse against four weed species sown into standard soil in pots and cultivated under controlled conditions in a glasshouse (at 24/18° C. day/night; 16 hours light; 65% humidity). Mesotrione was added to the spray tank as a standard SC (suspension concentrate) formulation.\nThe spray tests were also carried out using mesotrione in conjunction with adjuvants 1-12. The adjuvants were added to the spray solution at a rate of 0.2% v/v unless otherwise stated. All spray solutions also contained 10% w/w of iso-Propanol. The weed species and their BBCH growth stage at spraying were Brachiaria platyphylla (BRAPP; growth stage 13-14) or Brachiaria plantaginea (BRAPL; growth stage 13-14), Commelina benghalensis (COMBE; growth stage 13), Digitaria sanguinalis (DIGSA; growth stage 14), and Polygonum convolvulus (POLCO; growth stage 13-14). Each spray test was replicated three times.\nThe test plants were then grown in a glasshouse under controlled conditions (at 24/18° C. day/night; 16 hours light; 65% humidity) and watered twice a day. The efficacy of the herbicide was assessed visually and expressed as a percentage of the leaf area killed. Samples were assessed at a time period of 21 days following application. The results shown in Table 3 below are mean averages over the two rates of mesotrione and the three replicates."}, "[7]": {"tested_on": "Alopecurus myosuroides (ALOMY)", "test": "Adjuvant efficacy with pinoxaden, glasshouse spray test", "conditions": "pinoxaden EC, mean over 7.5 and 15 g/ha and 3 replicates; adjuvant 0.2% v/v (none in No Adjuvant rows); % leaf area killed, 21 days after application; Tests 1-4 separate runs", "procedure": "as §1, with “pinoxaden” for “nicosulfuron”, “species,” for “species”, “20/16°” for “24/18°”, “Pinoxaden” for “Nicosulfuron”, “EC (emulsifiable concentrate)” for “WG (water dispersible granule)”\n(§3) The spray tests were also carried out using pinoxaden in conjunction with adjuvants 1-12. The adjuvants were added to the spray solution at a rate of 0.2% v/v unless otherwise stated. All spray solutions also contained 10% w/w of iso-Propanol. The weed species and their BBCH growth stage at spraying were Avena fatua (AVEFA; growth stage 12), Lolium perenne (LOLPE; growth stage 13), Alopecurus myosuroides (ALOMY; growth stage 13), and Setaria viridis (SETVI; growth stage 13-14). Each spray test was replicated three times. The test plants were then grown in a glasshouse under controlled conditions (at 20/16° C. day/night; 16 hours light; 65% humidity) and watered twice a day. The efficacy of the herbicide was assessed visually and expressed as a percentage of the leaf area killed. Samples were assessed at a time period of 21 days following application. The results shown in Table 4 below are mean averages over the two rates of pinoxaden, and the three replicates."}, "Avena fatua (AVEFA)": {"tested_on": "Avena fatua (AVEFA)", "test": "Adjuvant efficacy with pinoxaden, glasshouse spray test", "conditions": "pinoxaden EC, mean over 7.5 and 15 g/ha and 3 replicates; adjuvant 0.2% v/v (none in No Adjuvant rows); % leaf area killed, 21 days after application; Tests 1-4 separate runs", "procedure": "as §1, with “pinoxaden” for “nicosulfuron”, “species,” for “species”, “20/16°” for “24/18°”, “Pinoxaden” for “Nicosulfuron”, “EC (emulsifiable concentrate)” for “WG (water dispersible granule)”\nas §3"}, "Lolium perenne (LOLPE)": {"tested_on": "Lolium perenne (LOLPE)", "test": "Adjuvant efficacy with pinoxaden, glasshouse spray test", "conditions": "pinoxaden EC, mean over 7.5 and 15 g/ha and 3 replicates; adjuvant 0.2% v/v (none in No Adjuvant rows); % leaf area killed, 21 days after application; Tests 1-4 separate runs", "procedure": "as §1, with “pinoxaden” for “nicosulfuron”, “species,” for “species”, “20/16°” for “24/18°”, “Pinoxaden” for “Nicosulfuron”, “EC (emulsifiable concentrate)” for “WG (water dispersible granule)”\nas §3"}, "Setaria viridis (SETVI) [8]": {"tested_on": "Setaria viridis (SETVI)", "test": "Adjuvant efficacy with pinoxaden, glasshouse spray test", "conditions": "pinoxaden EC, mean over 7.5 and 15 g/ha and 3 replicates; adjuvant 0.2% v/v (none in No Adjuvant rows); % leaf area killed, 21 days after application; Tests 1-4 separate runs", "procedure": "as §1, with “pinoxaden” for “nicosulfuron”, “species,” for “species”, “20/16°” for “24/18°”, “Pinoxaden” for “Nicosulfuron”, “EC (emulsifiable concentrate)” for “WG (water dispersible granule)”\nas §3"}, "Septoria tritici [9]": {"tested_on": "Septoria tritici", "test": "Adjuvant efficacy with isopyrazam on inoculated wheat plants", "conditions": "isopyrazam SC, mean over 6.5, 16, 40 and 100 mg/l and 4 replicates, sprayed 4 days after inoculation, percentage of leaf area infected 17-18 days after infection, Tests 1-3 separate runs", "procedure": "Adjuvants 6, 7, 8 and 10 were tested as adjuvants for agrochemical compositions comprising isopyrazam.\nTwo week old wheat plants were inoculated with the fungus Septoria tritici. […] All spray solutions also contained 10% v/v of iso-Propanol. The leaves of the plants were assessed visually 17-18 days after infection and the damage was expressed as the percentage of the leaf area infected. Each spray test was replicated four times across the four application rates.\nThe results shown in Table 6 below are mean averages over the four rates of isopyrazam and the four replicates."}, "Septoria tritici [10]": {"tested_on": "Septoria tritici", "test": "Adjuvant efficacy with epoxiconazole on inoculated wheat plants", "conditions": "epoxiconazole SC 1.5, 4, 8.5 and 20 mg/l, 4 replicates, adjuvant 0.1% v/v (none in No Adjuvant rows), sprayed 4 days after inoculation, percentage of leaf area infected 17-18 days after infection, Tests 1-3 separate runs", "procedure": "Adjuvants 6, 7, 8 and 10 were tested as adjuvants for agrochemical compositions comprising epoxiconazole.\nTwo week old wheat plants were inoculated with the fungus Septoria tritici. […] All spray solutions also contained 10% v/v of iso-Propanol. The leaves of the plants were assessed visually 17-18 days after infection and the damage was expressed as the percentage of the leaf area infected."}},
  "note": "“And” between values parts separate entries of the source, which are not always exact repeats. Identical values can stand only once.",
  "data": [
    {"smiles": "CCCCCCCCC=CCCCCCCCCOc1cc(OCCOCCOCCOCCOCCOCCOCCOCCOCCOCCOC)ncn1", "note": "[Adjuvant 10]", "values": [
      {"measurement": "Mean % Herbicidal Activity ABUTH", "setting": "[1]", "value": 58, "unit": "%"},
      {"measurement": "Mean % Herbicidal Activity CHEAL", "setting": "[2]", "value": 80, "unit": "%"},
      {"measurement": "Mean % Herbicidal Activity DIGSA", "setting": "[3]", "value": 88, "unit": "%"},
      {"measurement": "Mean % Herbicidal Activity SETVI", "setting": "Setaria viridis (SETVI) [4]", "value": 97, "unit": "%"},
      {"measurement": "Mean % Herbicidal Activity BRAPP", "setting": "[5]", "value": 61, "unit": "%"},
      {"measurement": "Mean % Herbicidal Activity Average over all Species", "setting": "[6]", "value": 80, "unit": "%"},
      {"measurement": "Mean % Herbicidal Activity ALOMY", "setting": "[7]", "value": 9, "unit": "%"},
      {"measurement": "Mean % Herbicidal Activity AVEFA", "setting": "Avena fatua (AVEFA)", "value": 80, "unit": "%"},
      {"measurement": "Mean % Herbicidal Activity LOLPE", "setting": "Lolium perenne (LOLPE)", "value": 25, "unit": "%"},
      {"measurement": "Mean % Herbicidal Activity SETVI", "setting": "Setaria viridis (SETVI) [8]", "value": 89, "unit": "%"},
      {"measurement": "Disease Damage Mean", "setting": "Septoria tritici [9]", "value": "17% and 14%"},
      {"measurement": "Disease Damage Mean", "setting": "Septoria tritici [10]", "value": 26, "unit": "%"}
    ]}
  ]
}
